Reference: patent publication US9713605B2, “Ameliorative or preventive effect of Antrodia cinnamomea in arthritis, cartilage destruction, or chondrocyte death” (Simpson Biotech Co., Ltd., priority 2011, dated 2017)

What was measured:
IL-1β = assay: Relative expression level of IL-1β mRNA in footpad (quantitative PCR) in CAIA; format: in vivo, mice; conditions: day 10, mean±SEM, arthritis group 41.13±6.465
From the text: (§1) An arthritogenic monoclonal antibody (mAb) cocktail and lipopolysaccharide (LPS) were purchased from Immuno-Biological Laboratories (Hamburg, Germany). Arthritis was induced by the method of Terato et al. (Terato et al., Induction of arthritis with monoclonal antibodies to collagen. J Immunol. 1992 Apr. 1; 148(7):2103-8), using an arthritogenic mAb cocktail that contained four mAbs (F10, A2, D8, and D1) in equal amounts and using LPS as adjuvant. Three clones (F10, A2, and D8) were of type IgG2a, and one clone (D1) was type IgG2b. To induce arthritis, each mouse was injected intravenously with 2 mg of anti-CII mAbs followed by an intraperitoneal injection of 50 μg (BALB/c background) LPS (Escherichia coli 0111:B4) three days later. Isotype IgG (anti-mouse IgG, 2 mg, Jackson Lab.) supplied with LPS and only LPS induction groups were applied in same condition.
Total RNA was isolated using the Trizol method. Footpad tissues were homogenized in Trizol lysis buffer followed by chloroform extraction (Life Technologies). The RNA was eluted with 20 μl of RNase-free water. All RNA was quantified by spectrophotometer, and the optical density (OD) 260/280 nm ratio was determined. For cDNA synthesis, 5 μg total RNA was reverse transcribed at 50° C. for 60 min using 200 units of Superscript III reverse transcriptase (Invitrogen). The primer sequence was as follows: IL1-β, forward primer (5′-[…]), reverse primer (5′-CTCGCAGCAGCACATCAAC); and GAPDH, forward primer (5′-[…]), reverse primer (5′-[…]). The SYBR Green master mix kit (Bio-Rad) was used for all reactions with real-time PCR. Briefly, PCR was performed as follows: 94° C. for 2 min followed by 40 cycles of denaturation; annealing; and extension at 94° C. for 15 s, 64° C. for 30 s, and 72° C. for 45 s; and final extension at 72° C. for 10 min. The PCR reaction was performed in triplicate for each sample for all the products and for the GAPDH control. Ratios for each product relative to GAPDH mRNA were calculated for each sample. The data presented are expressed as the fold-increase or fold-decrease in mRNA level. For all real-time PCR assays, the products were run out on a gel to confirm the presence of a single band.
(§2) Data were analyzed by the Mann-Whitney U test and were expressed as mean±SEM. A P value <0.05 was considered significant.
(§3) In each group, the subjects were given the sample once daily ([…]) since day 0 to day 9 via oral intake and the subjects was administrated before the antibody and LPS injection.

[1] = system: chondrocyte death in ankle joints of arthritic mice; assay: Histopathological chondrocyte death score of ankle joints in CAIA; format: in vivo; conditions: ankle joint harvested on day 10; mean±SD; arthritis group 1.929±0.450
From the text: as §1, with “Isotype IgG (anti-mouse IgG, 2 mg, Jackson Lab.) supplied with LPS and only LPS induction groups were applied in same condition.” left out
Ankle joints of arthritic mice were given chondrocyte death scores of 0, 1, 2, and 3 to describe the chondrocyte death according to the following criteria: 0, normal (FIG. 7A); 1, mild chondrocyte death (around less than ⅓ chondrocyte death in cartilage of all sections, FIGS. 7B, 7C); 2, moderate chondrocyte death (between ⅓ to ⅔ area chondrocyte death in the cartilage, FIG. 7D); 3, severe chondrocyte death (more than ⅔ chondrocyte death in the cartilage, FIG. 7E). Two independent observers scored each slide, and the average score was used.
(§4) Data were analyzed by the t test and are expressed as mean±SD. […]

[2] = system: cartilage destruction in ankle joints of arthritic mice; assay: Histopathological cartilage destruction score of ankle joints in CAIA; format: in vivo; conditions: ankle joint harvested on day 10; mean±SD; arthritis group 2.063±0.776
From the text: as §1
The ankle joints were fixed in 10% formalin, decalcified, trimmed, and embedded. Sections were prepared from the tissue blocks and stained with hematoxylin and eosin. Histopathological scoring was performed as described below. […] Two independent observers scored each slide, and the average score was used.
as §4

[3] = system: collagen antibody-induced arthritis (CAIA) in BALB/c mice; assay: Footpad thickness change in acute stage of CAIA; format: in vivo; conditions: day 10; oral once daily day 0 to day 9; mean±SEM; arthritis group 1.0446±0.0369
From the text: (§5) Male BALB/cByJNarl (BALB/c) mice were purchased at age six weeks from National Laboratory Animal Center (Taiwan) and subsequently bred and maintained under specific pathogen-free conditions in the Laboratory Animal Center of National Defense Medical Center (Taipei, Taiwan).
as §1
(§6) Arthritis development was monitored in the four limbs using a macroscopic scoring system. Briefly, one point was given for each swollen or red toe; one point for each swollen joint (metatarsal-phalangeal joints, metacarpal-phalangeal joints, proximal interphalangeal joints, and distal interphalangeal joints); and five points for a swollen ankle (maximum score=15 per limb and 60 per mouse) (Nandakumar et al., Collagen type II (CII)-specific antibodies induce arthritis in the absence of T or B cells but the arthritis progression is enhanced by CII-reactive T cells. Arthritis Res. Ther. 6 (2004), R544-R550). The mice were examined on days 0, 3, 7, 10 and 14 after the mAb injection. The thickness of each paw was measured in a noncontact manner using a Simplified Geometry Measurement System (Advanced Design Research Technology Co., Ltd). Images of the paws of each mouse were recorded three times (Chia et al., A noncontact footpad thickness assay to evaluate rheumatoid disease. Rheumatol Int. 2010 February; 30(4):547-50). One trained researcher who was blinded to group treatments evaluated the image data independently.
as §2, §3

[4] = system: collagen antibody-induced arthritis (CAIA) in BALB/c mice; assay: Histopathological arthritis score of ankle joints in CAIA; format: in vivo; conditions: ankle joint harvested on day 10; mean±SEM; arthritis group 4.178±0.2023
From the text: as §1
The ankle joints were fixed in 10% formalin, decalcified, trimmed, and embedded. Sections were prepared from the tissue blocks and stained with hematoxylin and eosin. Histopathological scoring was performed as described below. Ankle joints of arthritic mice were given arthritis scores of 0, 1, 2, 3, 4, and 5 to describe the arthritis according to the following criteria: 0, normal; 1, minimal infiltration of polymorphonuclear leukocytes in the periarticular area; 2, mild infiltration; 3, moderate infiltration; 4, marked infiltration; and 5, severe infiltration (Doherty, 2001. Risk factors for progression of knee osteoarthritis. Lancet 358:775-6). Three independent observers scored each slide, and the average score was used.
as §2, §3

[5] = system: collagen antibody-induced arthritis (CAIA) in BALB/c mice; assay: Disease activity score (macroscopic scoring of four limbs) in acute stage of CAIA; format: in vivo; conditions: oral once daily; for disease activity score (maximum 60 per mouse): day 10, mean±SEM, arthritis group 53.71±2.763
From the text: as §5, §1, §6, §2, §3

| Structure (SMILES) | relative expression levels of IL-1β (relative to GAPDH mRNA) (IL-1β) | chondrocyte death score (0-3) [1] | cartilage destruction score (0-3) [2] | footpad thickness (average increase compared to baseline) [3] | arthritis score (histopathological, 0-5) [4] | disease activity score, difference versus arthritis group ([5]; day 7) | disease activity score (maximum 60 per mouse) [5] |
| --- | --- | --- | --- | --- | --- | --- | --- |
| CC(C)=CCOc1ccc([C@H]2C(=O)N(O)C(=O)[C@@H]2CC(C)C)cc1 (relative stereo) [D group, 3R*,4S*-1-hydroxy-3-isobutyl-4-[4-(3-methyl-2-butenyloxy)phenyl]pyrrolidine-2,5-dione] | 10.141±2.765 | 1.042±0.439 | 1.167±0.144 | 0.729±0.114 mm | 3.458±0.559 | significant difference | 39.687±5.238 |
| CC(C)=CCOc1ccc(C2=C(CC(C)C)C(=O)OC2=O)cc1 [A group, 3-isobutyl-4-[4-(3-methyl-2-butenyloxy)phenyl]furan-2,5-dione] | 39.61±3.849 |  |  | 0.840±0.139 mm | 2.093±0.541 |  | 46.0±2.537 |
| CC(C)=CCOc1ccc(C2=C(CC(C)C)C(=O)NC2=O)cc1 [B group, 3-isobutyl-4-[4-(3-methyl-2-butenyloxy)phenyl]-1H-pyrrol-2,5-dione] | 16.873±4.82 |  |  | 0.837±0.177 mm |  |  | 45.58±4.818 |
| CC(C)=CCOc1ccc(C2=C(CC(C)C)C(=O)N(O)C2=O)cc1 [C group, 3-isobutyl-4-[4-(3-methyl-2-butenyloxy)phenyl]-1H-pyrrol-1-ol-2,5-dione] | 20.714±4.751 | 0.58±0.555 | 1.000±0.467 | 0.8605±0.098 mm | 3.25±0.421 |  | 47.718±3.581 |
